Assays:
[1] = system: syngeneic BRAFV600E PTEN−/− melanomas; assay: Syngeneic transplant tumor study: tumor growth, flow cytometry, Western blot, ELISA, qRT-PCR; format: in vivo, mouse
Procedure: B6.Cg-Braf^tm1MmcmPten^tm1Hwu Tg(Tyr-cre/ERT2 H-2^b)13Bos/BosJ transgenic mice were subdermally injected with 4-Hydroxytomoxifen (4-HT) (Sigma, H6278-50MG CCF, 38.75 μg/mouse) to induce primary melanoma development at the base of the tail. Mice were randomly assigned to treatment cohorts once tumor volumes reached 64 mm^3 (19, 30, 50). Depending on the experiment, mice were treated with the following agents: CXCR2 inhibitor (AZD5069, AstraZeneca) at 100 mg/kg per os (po) twice daily, NLRP3 inhibitor (MCC950) 10 mg/kg i.p every other day, anti-PD1 ab (BioXCell) or rat IgG2a isotype control (BioXCell) at 200 μg by i.p. injection every 3 days, Dacarbazine (50 mg/kg or 75 mg/kg, Sigma-Aldrich, D2390) by i.p. injection once every other day. Melanoma growth was monitored by orthogonal caliper measurements every 3 days.
Braf^V600EPten^−/−, Braf^V600EPten^−/−-NTC, Braf^V600EPten^−/−-Wnt5a^KD, Braf^V600EPten^−/−-CXCL5^KD, Braf^V600EPten^−/−-PDL1^KD, and Braf^V600EPten^−/−-NLRP3^KD cell lines (0.5×10^5-1×10^5 cells) were implanted by subcutaneous injection into the base of the tail of syngeneic C57BL/6 mice. Tumor growth was monitored by caliper measurement every 3 days and treatment was initiated when tumor volumes reached 64 mm^3. Tumor volume was calculated according to the formula: cm^3=[(length (cm)×(width (cm))^2]/2.
One million cells were stained with 1 μg per million cells of each fluorochrome conjugated antibodies or commercially available dyes according to the standard protocols and analyzed using a FACSCanto II or LSRII (Becton Dickinson). Cells were stained with Fc receptor blocking antibodies followed by a live/dead discriminator (CellTrace Violet, ThermoFisher, C34571), then by conjugated antibodies for 30 min at 4° C. Cell number was calculated by hemocytometer. Flow cytometry data was analyzed using Flowjo software v10.3.
Tumor tissue or cells were homogenized in NP40 lysis buffer (Sigma-Aldrich) supplemented with complete protease inhibitor and phosphatase inhibitor (Roche). Cells were lysed in Laemmli sample buffer after treatment and subjected to SDS-polyacrylamide gel electrophoresis. After transferring onto PVDF membranes (Bio-Rad), monoclonal and polyclonal primary antibodies and appropriate HRP-conjugated secondary antibodies were utilized for blotting. For the immunoprecipitation assays, cells were lysed with TBS buffer (50 mM Tris-HCl (pH 7.4), 150 mM NaCl) containing 0.5% Triton X-100, EDTA-free protease inhibitor cocktail and phosphatase inhibitor cocktail, precleared with protein A/G beads, and then incubated with 1 μg of appropriate antibodies or isotype control IgG on a rotator overnight at 4° C. then incubated with protein A/G-agarose at 4° C. for 1 hour. After 5 washes with TBS buffer, immunoprecipitated complexes were eluted in sample buffer by boiling and subjected to immunoblot analysis. Immunoblots were visualized by chemiluminescence substrate (ThermoFisher) and imaged by a ChemiDoc XRSplus system (BioRad). For the ASC polymerization assay, cells were lysed with TBS buffer containing 0.5% Triton X-100, EDTA-free protease inhibitor cocktail and phosphatase inhibitor cocktail. The lysates were centrifuged at 4,000 g at 4° C. for 15 min. For the detection of ASC oligomerization, the Triton-insoluble pellets were washed twice with TBS buffer and then resuspended in 500 μl TBS buffer. The resuspended pellets were crosslinked for 30 min at room temperature with 2 mM Disuccinimidyl suberate (DSS) (Thermo Fisher Scientific, 21655) and then centrifuged for 15 min at 6,000 g. The pellets were dissolved in SDS sample buffer.
Total RNA was isolated by RNeasy Plus Mini Kit (Qiagen, 74134). RNA (1000 ng) was used in cDNA Synthesis (iScript Reverse Transcription Supermix, BioRad, 1708841). Data analysis utilized the PrimePCR Analysis Software (BioRad). […]

[2] = system: BRAFV600EPTEN−/− melanoma cells; assay: MTT cell proliferation assay in culture; format: cell-based, mouse; conditions: NLRP3 inhibitor (MCC950) in culture
Text: FIG. 14A-H. (A) NLRP3 Western blot analysis of NTC and NLRP3KD BRAFV600EPTEN−/− melanoma cells. (B) Representative dot plots of PMN-MDSC and CD8+ T cell flow cytometry analysis of resected BRAFV600EPTEN^−/−-NTC and BRAFV600EPTEN^−/−-NLRP3KD stable cell lines. Representative of 2 independent experiments. (C) Top, MTT cell proliferation assay of BRAFV600EPTEN^−/−-NTC, BRAFV600EPTEN−/−-NLRP3KD, BRAFV600EPTEN^−/−-PDL1KD stable cell lines in culture. ns, non-significant. Bottom, MTT cell proliferation assay of BRAFV600EPTEN−/−melanoma cells following treatment with NLRP3 inhibitor (MCC950) in culture. Each performed in triplicate. (D) Tumor growth curve of BRAFV600EPTEN^−/−-NLRP3KDmelanomas with CD8+ T cell ablation. Mice treated with anti-CD8 ab ip daily×3 days followed by anti-CD8 ab one week later (gray boxes). BRAFV600EPTEN^−/−-NTC control tumors also included (n=5). (E) Plasma HSP70 ELISA of BRAFV600EPTEN^−/− melanoma-bearing mice following treatment with IgG isotype control ab, anti-PD-1 ab, or anti-PD-1 ab+MCC950 NLRP3 inhibitor (NLRP3i) (n=4/group). NTC, non-targeted control. KD, knockdown. (F) IL-1β qrt-PCR analysis of BRAFV600EPTEN−/− melanoma cells (n=3). Data normalized to TLR9 expression. (G) Above, IL-1β ELISA of BRAFV600EPTEN−/−-melanoma cell line supernatant after IFNγ/anti-PD-L1 ab treatment in vitro (n=3). […]

[3] = combined anti-PD-1 Ab and NLRP3 inhibitor

With `CC(C)(O)c1coc(S(=O)(=O)NC(=O)Nc2c3c(cc4c2CCC4)CCC3)c1` [MCC950, N-[[(1,2,3,5,6,7-hexahydro-s-indacen-4-yl)amino]carbonyl]-4-(1-hydroxy-1-methylethyl)-2-furansulfonamide] the “PMN-MDSC recruitment in response to anti-PD-1 Ab therapy” value ([1]; NLRP3 inhibition combined with anti-PD-1 Ab (200 μg i.p. every 3 days)) was “diminished”, the “levels of tumor-infiltrating CD8+ T cells” value ([1]; NLRP3 inhibitor MCC950 combined with anti-PD-1 Ab) was “enhanced” and the “tumor progression in vivo” value ([1]; NLRP3 inhibitor MCC950 combined with anti-PD-1 Ab, beyond what was observed with anti-PD-1 Ab monotherapy) was “suppressed”. For the same compound, the “HSP70 release (plasma ELISA)” value ([1]; combined anti-PD-1 Ab and NLRP3 inhibition) was “suppressed”, the “Cxcl5 levels (tumor qRT-PCR)” value [1, 3] was “suppressed” and the “Wnt5a expression (whole-tissue Western blot)” value [1, 3] was “suppressed”. For the same compound, the “caspase-1 cleavage (whole-tissue Western blot)” value [1, 3] was “suppressed”, the “expression of the cytolytic T cell marker Gzmb (tumor qRT-PCR)” value [1, 3] was “enhanced” and the “impact on tumor cell proliferation in vitro” value [2] was “neither pharmacologic inhibition of NLRP3 nor genetic silencing of Nlrp3 had any impact”.

From US12121565B2, “Methods of treatment of specific cancers with NLRP3 inhibitors and anti-PD1/PD-L1 antibodies” (Duke University, priority 2019, dated 2024)
